Laboratory results: the NIST ThermoML archive (doi:10.1016/j.tca.2005.12.008)
± gives the expanded uncertainty stated by the source.

Assay: molar heat capacity at constant pressure
Conditions: 101.33 kPa, Crystal, Small (less than 1 g) adiabatic calorimetry

## O.O=C([O-])[C@H](O)[C@@H](O)CO.O=C([O-])[C@H](O)[C@@H](O)CO.[Cu+2] [copper(II) (2R,3S)-2,3,4-trihydroxybutanoate hydrate]
77.95 K
  molar heat capacity at constant pressure: 157.12 ± 1.1 J/K/mol
78.77 K
  molar heat capacity at constant pressure: 158.43 ± 1.1 J/K/mol
79.58 K
  molar heat capacity at constant pressure: 159.75 ± 1.1 J/K/mol
81.05 K
  molar heat capacity at constant pressure: 161.91 ± 1.2 J/K/mol
83.23 K
  molar heat capacity at constant pressure: 165.7 ± 1.2 J/K/mol
85.3 K
  molar heat capacity at constant pressure: 168.87 ± 1.2 J/K/mol
87.33 K
  molar heat capacity at constant pressure: 172.05 ± 1.2 J/K/mol
89.3 K
  molar heat capacity at constant pressure: 175.55 ± 1.3 J/K/mol
91.24 K
  molar heat capacity at constant pressure: 178.89 ± 1.2 J/K/mol
93.14 K
  molar heat capacity at constant pressure: 182.28 ± 1.3 J/K/mol
95.01 K
  molar heat capacity at constant pressure: 185.29 ± 1.3 J/K/mol
96.85 K
  molar heat capacity at constant pressure: 188.44 ± 1.3 J/K/mol
98.65 K
  molar heat capacity at constant pressure: 191.21 ± 1.3 J/K/mol
100.44 K
  molar heat capacity at constant pressure: 194.62 ± 1.4 J/K/mol
102.18 K
  molar heat capacity at constant pressure: 197.16 ± 1.4 J/K/mol
103.92 K
  molar heat capacity at constant pressure: 200.13 ± 1.4 J/K/mol
105.63 K
  molar heat capacity at constant pressure: 203.01 ± 1.4 J/K/mol
107.32 K
  molar heat capacity at constant pressure: 205.34 ± 1.4 J/K/mol
109 K
  molar heat capacity at constant pressure: 207.51 ± 1.4 J/K/mol
110.66 K
  molar heat capacity at constant pressure: 210.17 ± 1.5 J/K/mol
112.29 K
  molar heat capacity at constant pressure: 213.09 ± 1.5 J/K/mol
113.91 K
  molar heat capacity at constant pressure: 215.33 ± 1.5 J/K/mol
115.53 K
  molar heat capacity at constant pressure: 217.99 ± 1.5 J/K/mol
117.12 K
  molar heat capacity at constant pressure: 220.64 ± 1.5 J/K/mol
118.7 K
  molar heat capacity at constant pressure: 222.67 ± 1.5 J/K/mol
120.28 K
  molar heat capacity at constant pressure: 224.56 ± 1.6 J/K/mol
121.83 K
  molar heat capacity at constant pressure: 227.52 ± 1.6 J/K/mol
123.37 K
  molar heat capacity at constant pressure: 230.1 ± 1.6 J/K/mol
124.9 K
  molar heat capacity at constant pressure: 231.86 ± 1.6 J/K/mol
127.77 K
  molar heat capacity at constant pressure: 236.46 ± 1.6 J/K/mol
132.03 K
  molar heat capacity at constant pressure: 242.38 ± 1.7 J/K/mol
136.29 K
  molar heat capacity at constant pressure: 248.21 ± 1.7 J/K/mol
140.39 K
  molar heat capacity at constant pressure: 253.18 ± 1.7 J/K/mol
144.49 K
  molar heat capacity at constant pressure: 258.87 ± 1.8 J/K/mol
148.5 K
  molar heat capacity at constant pressure: 263.42 ± 1.8 J/K/mol
152.44 K
  molar heat capacity at constant pressure: 269.25 ± 1.9 J/K/mol
156.37 K
  molar heat capacity at constant pressure: 273.65 ± 1.9 J/K/mol
160.22 K
  molar heat capacity at constant pressure: 278.91 ± 1.9 J/K/mol
163.99 K
  molar heat capacity at constant pressure: 283.6 ± 1.9 J/K/mol
167.76 K
  molar heat capacity at constant pressure: 289.57 ± 2 J/K/mol
171.53 K
  molar heat capacity at constant pressure: 294.4 ± 2 J/K/mol
175.22 K
  molar heat capacity at constant pressure: 298.81 ± 2 J/K/mol
178.91 K
  molar heat capacity at constant pressure: 303.93 ± 2.1 J/K/mol
182.51 K
  molar heat capacity at constant pressure: 308.62 ± 2.1 J/K/mol
186.04 K
  molar heat capacity at constant pressure: 314.59 ± 2.1 J/K/mol
189.63 K
  molar heat capacity at constant pressure: 319.74 ± 2.2 J/K/mol
193.17 K
  molar heat capacity at constant pressure: 324.58 ± 2.2 J/K/mol
196.61 K
  molar heat capacity at constant pressure: 329.37 ± 2.2 J/K/mol
200.05 K
  molar heat capacity at constant pressure: 333.92 ± 2.3 J/K/mol
203.48 K
  molar heat capacity at constant pressure: 338.93 ± 2.3 J/K/mol
206.76 K
  molar heat capacity at constant pressure: 344.03 ± 2.4 J/K/mol
210.14 K
  molar heat capacity at constant pressure: 349.72 ± 2.4 J/K/mol
213.41 K
  molar heat capacity at constant pressure: 353.68 ± 2.4 J/K/mol
216.7 K
  molar heat capacity at constant pressure: 358.82 ± 2.4 J/K/mol
219.87 K
  molar heat capacity at constant pressure: 365.27 ± 2.5 J/K/mol
223.07 K
  molar heat capacity at constant pressure: 370.33 ± 2.5 J/K/mol
226.27 K
  molar heat capacity at constant pressure: 374.9 ± 2.5 J/K/mol
229.39 K
  molar heat capacity at constant pressure: 380.28 ± 2.6 J/K/mol
232.43 K
  molar heat capacity at constant pressure: 385.56 ± 2.6 J/K/mol
235.45 K
  molar heat capacity at constant pressure: 390.94 ± 2.7 J/K/mol
238.48 K
  molar heat capacity at constant pressure: 396.17 ± 2.7 J/K/mol
241.43 K
  molar heat capacity at constant pressure: 401.58 ± 2.7 J/K/mol
244.3 K
  molar heat capacity at constant pressure: 406.42 ± 2.8 J/K/mol
247.25 K
  molar heat capacity at constant pressure: 410.96 ± 2.8 J/K/mol
250.17 K
  molar heat capacity at constant pressure: 415.09 ± 2.8 J/K/mol
253.07 K
  molar heat capacity at constant pressure: 420.05 ± 2.9 J/K/mol
255.94 K
  molar heat capacity at constant pressure: 424.32 ± 2.9 J/K/mol
258.81 K
  molar heat capacity at constant pressure: 430.57 ± 2.9 J/K/mol
261.59 K
  molar heat capacity at constant pressure: 435.83 ± 3 J/K/mol
264.38 K
  molar heat capacity at constant pressure: 439.95 ± 3 J/K/mol
267.25 K
  molar heat capacity at constant pressure: 446.35 ± 3 J/K/mol
269.95 K
  molar heat capacity at constant pressure: 449.9 ± 3 J/K/mol
272.74 K
  molar heat capacity at constant pressure: 455.45 ± 3.1 J/K/mol
275.44 K
  molar heat capacity at constant pressure: 460.56 ± 3.1 J/K/mol
278.15 K
  molar heat capacity at constant pressure: 465.27 ± 3.1 J/K/mol
280.87 K
  molar heat capacity at constant pressure: 471.63 ± 3.2 J/K/mol
283.46 K
  molar heat capacity at constant pressure: 476.96 ± 3.2 J/K/mol
286.11 K
  molar heat capacity at constant pressure: 481.85 ± 3.3 J/K/mol
288.64 K
  molar heat capacity at constant pressure: 486.29 ± 3.3 J/K/mol
291.26 K
  molar heat capacity at constant pressure: 492.12 ± 3.3 J/K/mol
293.8 K
  molar heat capacity at constant pressure: 496.38 ± 3.4 J/K/mol
296.18 K
  molar heat capacity at constant pressure: 501.64 ± 3.4 J/K/mol
298.72 K
  molar heat capacity at constant pressure: 506.76 ± 3.4 J/K/mol
301.34 K
  molar heat capacity at constant pressure: 511.59 ± 3.5 J/K/mol
304.73 K
  molar heat capacity at constant pressure: 517.6 ± 3.5 J/K/mol
308.01 K
  molar heat capacity at constant pressure: 525.08 ± 3.5 J/K/mol
311.68 K
  molar heat capacity at constant pressure: 533.37 ± 3.6 J/K/mol
315.35 K
  molar heat capacity at constant pressure: 539.96 ± 3.6 J/K/mol
318.3 K
  molar heat capacity at constant pressure: 546.62 ± 3.7 J/K/mol
321.22 K
  molar heat capacity at constant pressure: 553.21 ± 3.7 J/K/mol
324.17 K
  molar heat capacity at constant pressure: 560.99 ± 3.8 J/K/mol
327.09 K
  molar heat capacity at constant pressure: 567.58 ± 3.8 J/K/mol
330.19 K
  molar heat capacity at constant pressure: 573.7 ± 3.9 J/K/mol
333.38 K
  molar heat capacity at constant pressure: 581.34 ± 3.9 J/K/mol
336.12 K
  molar heat capacity at constant pressure: 586.57 ± 4 J/K/mol
338.87 K
  molar heat capacity at constant pressure: 593.18 ± 4 J/K/mol
341.62 K
  molar heat capacity at constant pressure: 602.58 ± 4.1 J/K/mol
344.26 K
  molar heat capacity at constant pressure: 609.21 ± 4.1 J/K/mol
346.73 K
  molar heat capacity at constant pressure: 617.4 ± 4.2 J/K/mol
349.06 K
  molar heat capacity at constant pressure: 625.08 ± 4.2 J/K/mol
351.28 K
  molar heat capacity at constant pressure: 633.61 ± 4.3 J/K/mol
353.44 K
  molar heat capacity at constant pressure: 639.41 ± 4.3 J/K/mol
355.51 K
  molar heat capacity at constant pressure: 652.09 ± 4.4 J/K/mol
